Counter-ions that a name gives are not always drawn.

The values that follow come from publication PMC11995724, “Antibiotic target discovery by integrated phenotypic and activity-based profiling of electrophilic fragments” (Cell chemical biology, 2025).

The series is described as follows: in vitro. The settings on record: human, hek293t cells.
As a reminder, the viability is a read-out of living cells in per cent, often relative to untreated cells. As for `CC(Cl)C(=O)Nc1cc(Cl)ccc1Cl` (stereo not shown) [6-A15, 2-chloro-N-(2,5-dichlorophenyl)propanamide], the viability at 48 h, 25 µM turned out to be 86.9%.

As for `C=CC(=O)NC1CCC(c2nc(-c3ccccc3)n[nH]2)CC1` (stereo not shown) [1-P05, N-[4-(3-phenyl-1H-1,2,4-triazol-5-yl)cyclohexyl]prop-2-enamide], the viability at 48 h, 25 µM amounted to 104%. In the case of `C=CCNC(=O)C(C#N)=Cc1ccc2c(c1)OCCO2` [9-L06, 2-cyano-3-(2,3-dihydro-1,4-benzodioxin-6-yl)-N-(prop-2-en-1-yl)prop-2-enamide], the viability at 48 h, 25 µM worked out at 86.7%. Turning to `O=C(CCl)NCCC1CCCC1(F)F` (stereo not shown) [7-P04, 2-chloro-N-[2-(2,2-difluorocyclopentyl)ethyl]acetamide], the viability at 48 h, 25 µM came to 1.08%. Consider `CC(Cl)C(=O)NCc1cccs1` (stereo not shown) [4-P11, 2-chloro-N-[(thiophen-2-yl)methyl]propanamide], for which the viability at 48 h, 25 µM is 68.4%. With `CCc1nocc1CN(C)C(=O)CCl` [5-B11, 2-chloro-N-[(3-ethyl-1,2-oxazol-4-yl)methyl]-N-methylacetamide], the viability at 48 h, 25 µM came to 1.49%.

`Cc1cc(NC(=O)CCl)n(-c2ccccc2)n1` [4-G05, 2-chloro-N-(3-methyl-1-phenyl-1H-pyrazol-5-yl)acetamide]: the viability at 48 h, 25 µM amounted to 0.983%. Next, `COc1ccc(N(C(=O)CCl)C2C=CS(=O)(=O)C2)cc1` (stereo not shown) [5-H14, 2-chloro-N-(1,1-dioxo-2,3-dihydro-1lambda6-thiophen-3-yl)-N-(4-methoxyphenyl)acetamide]: 1.1%.

For `C=CC(=O)Nc1nc(-c2cccs2)cs1` [1-D08, N-[4-(thiophen-2-yl)-1,3-thiazol-2-yl]prop-2-enamide], the viability at 48 h, 25 µM stood at 1.21%. Then `CC(Cl)C(=O)N1CCc2c(nnn2C)C1` (stereo not shown) [7-G22, 2-chloro-1-{1-methyl-1H,4H,5H,6H,7H-[1,2,3]triazolo[4,5-c]pyridin-5-yl}propan-1-one], with 80.5%. On to `Cc1cc(C(=O)CCl)c(C)n1CCc1cccs1` [10-F16, 2-chloro-1-{2,5-dimethyl-1-[2-(thiophen-2-yl)ethyl]-1H-pyrrol-3-yl}ethan-1-one], for which the viability at 48 h, 25 µM worked out at 0.304%.

Consider `CC(Cl)C(=O)NC(C)c1ccc(C(F)(F)F)nc1Cl` (stereo not shown) [7-G09, 2-chloro-N-{1-[2-chloro-6-(trifluoromethyl)pyridin-3-yl]ethyl}propanamide], for which the viability at 48 h, 25 µM turned out to be 83.5%. Next, `O=C(Nc1ccc(F)cc1)N1CCSSCC1` [10-D21, N-(4-fluorophenyl)-1,2,5-dithiazepane-5-carboxamide]: 84%.

Regarding `C=CC(=O)N(Cc1cc2cccc(OC)c2o1)[C@@H]1C[C@H]2CC[C@@H]1O2` (racemic) [1-J13, rac-N-[(7-methoxy-1-benzofuran-2-yl)methyl]-N-[(1R,2S,4S)-7-oxabicyclo[2.2.1]heptan-2-yl]prop-2-enamide], the viability at 48 h, 25 µM was 172%. On to `O=C(CCl)c1ccc(Oc2ccccc2)cc1` [10-G20, 2-chloro-1-(4-phenoxyphenyl)ethan-1-one], for which the viability at 48 h, 25 µM was found to be 0.299%. Turning to `Cc1ccccc1NC(=O)C(C#N)=Cc1ccc(N2CCCCC2)cc1` [9-E21, 2-cyano-N-(2-methylphenyl)-3-[4-(piperidin-1-yl)phenyl]prop-2-enamide], the viability at 48 h, 25 µM is 91.8%. For the compound `CC(Cl)C(=O)NCc1noc2ccccc12` (stereo not shown) [7-I14, N-[(1,2-benzoxazol-3-yl)methyl]-2-chloropropanamide], the viability at 48 h, 25 µM was 77.8%. With `C=CC(=O)Nc1ccccc1-n1nccn1` [3-H10, N-[2-(2H-1,2,3-triazol-2-yl)phenyl]prop-2-enamide], the viability at 48 h, 25 µM amounted to 73.2%.

With `C=CC(=O)NCCc1ccn(-c2ccc(F)cc2)n1` [2-P03, N-{2-[1-(4-fluorophenyl)-1H-pyrazol-3-yl]ethyl}prop-2-enamide], the viability at 48 h, 25 µM came out at 70.4%. As to `COc1cccc2cc(C=C(C#N)C(=O)Nc3ccc(C)cc3)oc12` [9-A17, 2-cyano-3-(7-methoxy-1-benzofuran-2-yl)-N-(4-methylphenyl)prop-2-enamide], the viability at 48 h, 25 µM was 89%. `CC(Cl)C(=O)N1CCn2c(Cc3c(F)cccc3F)nnc2C1` (stereo not shown) [6-F18, 2-chloro-1-{3-[(2,6-difluorophenyl)methyl]-5H,6H,7H,8H-[1,2,4]triazolo[4,3-a]pyrazin-7-yl}propan-1-one]: the viability at 48 h, 25 µM stood at 100%. Turning to `Cc1cc(C=C(C#N)C(=O)Nc2ccccc2)c(C)n1C1CC1` [8-E14, 2-cyano-3-(1-cyclopropyl-2,5-dimethyl-1H-pyrrol-3-yl)-N-phenylprop-2-enamide], the viability at 48 h, 25 µM is 91.7%.

Turning to `O=C(CCl)NCC1CCN(C(=O)Cc2ccccc2)C1` (stereo not shown) [7-B08, 2-chloro-N-{[1-(2-phenylacetyl)pyrrolidin-3-yl]methyl}acetamide], the viability at 48 h, 25 µM was 0.975%. Consider `C=CC(=O)NC(C)Cc1cccn1C` (stereo not shown) [3-M22, N-[1-(1-methyl-1H-pyrrol-2-yl)propan-2-yl]prop-2-enamide], for which the viability at 48 h, 25 µM was found to be 70.2%. In the case of `C=CC(=O)NC(C)c1cnc(C(F)(F)F)s1` (stereo not shown) [2-A05, N-{1-[2-(trifluoromethyl)-1,3-thiazol-5-yl]ethyl}prop-2-enamide], the viability at 48 h, 25 µM worked out at 73.5%. Take `C=CC(=O)N1CCC(C(=O)NC2CCN(C(=O)C(C)(C)C)CC2)CC1` [3-I21, N-[1-(2,2-dimethylpropanoyl)piperidin-4-yl]-1-(prop-2-enoyl)piperidine-4-carboxamide]: the viability at 48 h, 25 µM came out at 52.8%. As for `Cc1cc(C=C(C#N)C(=O)NCc2ccccc2)c(C)n1C1CC1` [8-G14, N-benzyl-2-cyano-3-(1-cyclopropyl-2,5-dimethyl-1H-pyrrol-3-yl)prop-2-enamide], the viability at 48 h, 25 µM was 74%. Regarding `C=CC(=O)N1CCC(C(=O)N2CCCC(NC(=O)C(C)(C)C)C2)CC1` (stereo not shown) [2-F05, 2,2-dimethyl-N-{1-[1-(prop-2-enoyl)piperidine-4-carbonyl]piperidin-3-yl}propanamide], the viability at 48 h, 25 µM was found to be 75.6%. In the case of `O=C(CCl)NC1COc2ncccc21` (stereo not shown) [7-F10, 2-chloro-N-{2H,3H-furo[2,3-b]pyridin-3-yl}acetamide], the viability at 48 h, 25 µM came out at 53.7%.

As to `CC(C)NC(=O)C(C#N)=Cc1ccc(C(C)C)cc1` [9-I11, 2-cyano-N-(propan-2-yl)-3-[4-(propan-2-yl)phenyl]prop-2-enamide], the viability at 48 h, 25 µM is 78.1%. As for `CC(C)C(NC(=O)CCl)c1ccc2c(c1)OCCCO2` (stereo not shown) [4-N14, 2-chloro-N-[1-(3,4-dihydro-2H-1,5-benzodioxepin-7-yl)-2-methylpropyl]acetamide], the viability at 48 h, 25 µM was found to be 28.5%.

In the case of `O=C1CCCc2cc(C(=O)CCl)ccc2N1` [10-M20, 7-(2-chloroacetyl)-2,3,4,5-tetrahydro-1H-1-benzazepin-2-one], the viability at 48 h, 25 µM amounted to 80.5%.

Take `O=C(CCl)Nc1nnc(-c2ccccc2Cl)s1` [6-K17, 2-chloro-N-[5-(2-chlorophenyl)-1,3,4-thiadiazol-2-yl]acetamide]: the viability at 48 h, 25 µM was 0.539%.

Turning to `N#CC(=Cc1cc(F)ccc1F)C(=O)NC1CCCC1` [8-I12, 2-cyano-N-cyclopentyl-3-(2,5-difluorophenyl)prop-2-enamide], the viability at 48 h, 25 µM is 16.8%. In the case of `CCCCNC(=O)C(C#N)=Cc1c[nH]nn1` [9-L04, N-butyl-2-cyano-3-(1H-1,2,3-triazol-4-yl)prop-2-enamide], the viability at 48 h, 25 µM was determined as 116%. In the case of `COc1cc(C(C)NC(=O)CCl)sn1` (stereo not shown) [7-H22, 2-chloro-N-[1-(3-methoxy-1,2-thiazol-5-yl)ethyl]acetamide], the viability at 48 h, 25 µM was determined as 0.822%. Take `CC(Cl)C(=O)N(C)CCn1c(=O)oc2ccccc21` (stereo not shown) [7-H15, 2-chloro-N-methyl-N-[2-(2-oxo-2,3-dihydro-1,3-benzoxazol-3-yl)ethyl]propanamide]: the viability at 48 h, 25 µM was determined as 102%. For `C=CC(=O)N1CCC(C(=O)NC2(CO)CCSCC2)CC1` [3-H07, N-[4-(hydroxymethyl)thian-4-yl]-1-(prop-2-enoyl)piperidine-4-carboxamide], the viability at 48 h, 25 µM was 67.5%.

For `C=CC(=O)NCc1ccccc1S(=O)(=O)N1CCCC1` [2-L17, N-{[2-(pyrrolidine-1-sulfonyl)phenyl]methyl}prop-2-enamide], the viability at 48 h, 25 µM was determined as 68.6%. Regarding `O=C(CCl)Nc1c(F)c(F)c(F)c(F)c1F` [4-L08, 2-chloro-N-(2,3,4,5,6-pentafluorophenyl)acetamide], the viability at 48 h, 25 µM was found to be 1.92%. As for `N#CC(=Cc1ccc(Cl)cc1Cl)C(=O)Nc1nccs1` [9-H19, 2-cyano-3-(2,4-dichlorophenyl)-N-(1,3-thiazol-2-yl)prop-2-enamide], the viability at 48 h, 25 µM came out at 121%.

Turning to `COc1cc([N+](=O)[O-])ccc1N1C(=O)C=CC1=O` [10-H13, 1-(2-methoxy-4-nitrophenyl)-2,5-dihydro-1H-pyrrole-2,5-dione], the viability at 48 h, 25 µM worked out at 97.6%. With `CC1=C(c2ccco2)CN(C(=O)C(C)Cl)CC1` (stereo not shown) [6-D15, 2-chloro-1-[5-(furan-2-yl)-4-methyl-1,2,3,6-tetrahydropyridin-1-yl]propan-1-one], the viability at 48 h, 25 µM was 103%.

On to `C=CCNC(=O)C(C#N)=Cc1cnn(-c2ccc(Cl)cc2)c1` [9-M16, 3-[1-(4-chlorophenyl)-1H-pyrazol-4-yl]-2-cyano-N-(prop-2-en-1-yl)prop-2-enamide], for which the viability at 48 h, 25 µM stood at 115%.

In the case of `C=CC(=O)Nc1c(C)ccc(Cl)c1CO` [1-O03, N-[3-chloro-2-(hydroxymethyl)-6-methylphenyl]prop-2-enamide], the viability at 48 h, 25 µM was 67.5%. For `CC(Cl)C(=O)N(C(C)CS(C)(=O)=O)C1CC1` (stereo not shown) [6-L17, 2-chloro-N-cyclopropyl-N-(1-methanesulfonylpropan-2-yl)propanamide], the viability at 48 h, 25 µM is 112%. Then `C=CC(=O)NCC(C)(C)C1(O)CCOC1` (stereo not shown) [3-K13, N-[2-(3-hydroxyoxolan-3-yl)-2-methylpropyl]prop-2-enamide], with 68%; and `O=C(CCl)Nc1ccc(CN2CCCCC2)cc1` [6-M04, 2-chloro-N-{4-[(piperidin-1-yl)methyl]phenyl}acetamide hydrochloride], with 0.0889%; and `C=CC(=O)N1CCN(c2nc(CC)ns2)CC1` [1-J20, 1-[4-(3-ethyl-1,2,4-thiadiazol-5-yl)piperazin-1-yl]prop-2-en-1-one], with 46.2%.
